Some results are limits rather than exact numbers.

One assay deals with 8XTBD luciferase reporter (YAP reporter) in HEK293T cells. Kind of assay: YAP Reporter Assay. The note with it: Homo sapiens, HEK-293T, 24 h, read-out: Firefly Luciferase IC50 (μM). It counts as cell-based. The gist of the method:
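HEK293T cells stably carrying 8XTBD firefly luciferase and TK-renilla (3×10^3 cells/well) dosed 3-4 h after plating with compounds from 3 μM final, 1:3 dilution, 10 points, quadruplicates. After 24 h at 37° C, Dual-Glo readings gave IC50 and maximum inhibition reported separately for firefly and renilla.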
(In general: In a reporter assay the amount or activity of a reporter protein is the signal.)
Usually IC50 stands for the concentration needed to halve the response being measured. For `C[C@H](NC(=O)c1ccc2c(-c3ccc(C(F)(F)F)cc3)cccc2c1)C1CN(CCO)C1` [Compound 140, N-[(1S)-1-[1-(2-hydroxyethyl)azetidin-3-yl]ethyl]-5-[4-(trifluoromethyl)phenyl]naphthalene-2-carboxamide], the IC50 was 0.1 to 1 µM.

The assay is the same for the next values; noted with them: Homo sapiens, HEK-293T; HEK293T cells stably transfected with 8XTBD luciferase reporter and pRLTK; 24-hr incubation; top concentration 3 μM; read-out: Firefly Luciferase IC50.
As to `C[C@@H](NC(=O)c1ccc2c(-c3ccc(C(F)(F)F)cc3)cccc2c1)c1cccc(N)n1` [Compound 129, (R)—N-(1-(6-aminopyridin-2-yl)ethyl)-5-(4-(trifluoromethyl)phenyl)-2-naphthamide], the IC50 is less than 0.1 µM.
On the same count and under the same terms, the figure for `O=C(NC1(c2ccccn2)CC1)c1ccc2c(-c3ccc(C(F)(F)F)cc3)cccc2c1` [Compound 250, N-(1-(pyridin-2-yl)cyclopropyl)-5-(4-(trifluoromethyl)phenyl)-2-naphthamide] is 0.1 to 1 µM; for `O=C(O)c1ccc2c(-c3ccc(C(F)(F)F)cc3)cncc2c1` [Compound 336, 4-[4-(trifluoromethyl)phenyl]isoquinoline-7-carboxylic Acid] it is 0.1 to 1 µM.
As for `O=C(NCCC/C=C/COc1ccon1)c1ccc2c(-c3ccc(C(F)(F)F)cc3)cccc2c1` [Compound 198, N-[(E)-6-isoxazol-3-yloxyhex-4-enyl]-5-[4-(trifluoromethyl)phenyl]naphthalene-2-carboxamide], the IC50 is less than 0.1 µM.
In the case of `NS(=O)(=O)NC(=O)c1ccc2c(-c3ccc(C(F)(F)F)cc3)cccc2c1` [Compound 29, N-sulfamoyl-5-(4-(trifluoromethyl)phenyl)-2-naphthamide], the IC50 lay in the range of 0.1 to 1 µM.
As for `C[C@H](NC(=O)c1ccc2c(-c3ccc(C(F)(F)F)cc3)cccc2c1)c1c[nH]cn1` [Compound 276, (S)—N-(1-(1H-imidazol-4-yl)ethyl)-5-(4-(trifluoromethyl)phenyl)-2-naphthamide], the IC50 fell in the range of 0.1 to 1 µM.
With `O=C(NC1(c2ccccc2)COC1)c1ccc2c(-c3ccc(C(F)(F)F)cc3)cccc2c1` [Compound 288, N-(3-phenyloxetan-3-yl)-5-(4-(trifluoromethyl)phenyl)-2-naphthamide], the IC50 was less than 0.1 µM.
The same measure, in the same setting: the result for `O=C(NC(CCO)CCO)c1ccc2c(-c3ccc(C(F)(F)F)cc3)cccc2c1` [Compound 161, N-(1,5-dihydroxypentan-3-yl)-5-(4-(trifluoromethyl)phenyl)-2-naphthamide] reads 0.1 to 1 µM.
The same measure, in the same setting: the result for `CC(=O)N(C)c1ccc(-c2ccc(C(F)(F)F)cc2)c2ccc(C(=O)NC(C)C)cc12` [Compound 30, N-isopropyl-8-(N-methylacetamido)-5-(4-(trifluoromethyl)phenyl)-2-naphthamide] reads 0.1 to 1 µM; that for `CC(C)NC(=O)c1cnc2c(-c3ccc(C(F)(F)F)cc3)cccc2n1` [Compound 268, N-Isopropyl-5-(4-(trifluoromethyl)phenyl)quinoxaline-2-carboxamide], 0.1 to 1 µM.
Consider `COc1cc(-c2ccc(C(F)(F)F)cc2)c2ccc(C(=O)O)cc2c1` [Compound 322, 7-methoxy-5-(4-(trifluoromethyl)phenyl)-2-naphthoic Acid], for which the IC50 is less than 0.1 µM.
In the case of `CS(=O)(=O)NC(=O)c1cnc2c(-c3ccc(C(F)(F)F)cc3)cc(OC3CC3)cc2c1` [Compound 122, 6-cyclopropoxy-N-(methylsulfonyl)-8-(4-(trifluoromethyl)phenyl)quinoline-3-carboxamide], the IC50 was 0.1 to 1 µM.
The same measure, in the same setting: the figure for `O=C(NCC/C=C/COc1ccon1)c1ccc2c(-c3ccc(C(F)(F)F)cc3)cccc2c1` [Compound 181, N-[(E)-5-isoxazol-3-yloxypent-3-enyl]-5-[4-(trifluoromethyl)phenyl]naphthalene-2-carboxamide] is less than 0.1 µM; for `O=C(NCCCCCO)c1ccc2c(-c3ccc(C(F)(F)F)cc3)cccc2c1` [Compound 238, N-(5-hydroxypentyl)-5-[4-(trifluoromethyl)phenyl]naphthalene-2-carboxamide] it is 0.1 to 1 µM; for `CC(C)NC(=O)c1ccc2c(-c3ccc(C(F)(F)F)cc3)ccc(NS(C)(=O)=O)c2c1` [Compound 23, N-isopropyl-8-(methylsulfonamido)-5-(4-(trifluoromethyl)phenyl)-2-naphthamide] it is less than 0.1 µM.
As for `C[C@H](CO)NC(=O)c1cnc2c(-c3ccc(C(F)(F)F)cc3)cccc2c1` [Compound 99, (R)—N-(1-hydroxypropan-2-yl)-8-(4-(trifluoromethyl)phenyl)quinoline-3-carboxamide], the IC50 was less than 0.1 µM.
As for `O=C(NCCC=CCO)c1ccc2c(-c3ccc(C(F)(F)F)cc3)cccc2c1` (stereo in doubt) [Compound 245, N-[(E)-5-hydroxypent-3-enyl]-5-[4-(trifluoromethyl)phenyl]naphthalene-2-carboxamide], the IC50 fell in the range of 0.1 to 1 µM.
The same measure, in the same setting: the result for `O=C(NCc1ccnc(COc2ccon2)n1)c1ccc2c(-c3ccc(C(F)(F)F)cc3)cccc2c1` [Compound 171, N-((2-((Isoxazol-3-yloxy)methyl)pyrimidin-4-yl)methyl)-5-(4-(trifluoromethyl)phenyl)-2-naphthamide] reads 0.1 to 1 µM.
Consider `O=C(NCCCCCl)c1ccc2c(-c3ccc(C(F)(F)F)cc3)cccc2c1` [Compound 249, N-(4-chlorobutyl)-5-(4-(trifluoromethyl)phenyl)-2-naphthamide], for which the IC50 was 0.1 to 1 µM.
On the same count and under the same terms, the figure for `CC(C)(C)OC(=O)Nc1cccc(CNC(=O)c2ccc3c(-c4ccc(C(F)(F)F)cc4)cccc3c2)c1` [Compound 236, Tert-Butyl (3-((5-(4-(trifluoromethyl)phenyl)-2-naphthamido)methyl)phenyl)carbamate] is 0.1 to 1 µM; for `CC(C)NC(=O)c1ccc2c(-c3ccc(C(F)(F)F)cc3)cc(NS(C)(=O)=O)cc2c1` [Compound 52, N-isopropyl-7-(methylsulfonamido)-5-(4-(trifluoromethyl)phenyl)-2-naphthamide] it is less than 0.1 µM.
`CSc1ccc(-c2ccc(C(F)(F)F)cc2)c2ccc(C(=O)NC(C)C)cc12` [Compound 18, N-isopropyl-8-methylsulfanyl-5-[4-(trifluoromethyl)phenyl]naphthalene-2-carboxamide]: the IC50 was less than 0.1 µM.
As to `O=C(NCc1cccc(COc2c(F)cccc2F)n1)c1ccc2c(-c3ccc(C(F)(F)F)cc3)cccc2c1` [Compound 187, N-((6-((2,6-difluorophenoxy)methyl)pyridin-2-yl)methyl)-5-(4-(trifluoromethyl)phenyl)-2-naphthamide], the IC50 is 0.1 to 1 µM.
As to `CS(=O)(=O)NC(=O)c1cnc2c(-c3ccc(C(F)(F)F)cc3)cc(F)c(F)c2c1` [Compound 73, 5,6-Difluoro-N-(methylsulfonyl)-8-(4-(trifluoromethyl)phenyl)quinoline-3-carboxamide], the IC50 fell in the range of 0.1 to 1 µM.
The same measure, in the same setting: the result for `COc1cc(-c2ccc(C(F)(F)F)cc2)c2ncc(C(=O)N[C@H](C)c3ccccn3)cc2c1` [Compound 106, 6-methoxy-N-[(1R)-1-(2-pyridyl)ethyl]-8-[4-(trifluoromethyl)phenyl]quinoline-3-carboxamide] reads 0.1 to 1 µM; that for `C[C@H](NC(=O)c1cnc2c(-c3ccc(C(F)(F)F)cc3)cccc2n1)c1ccccn1` [Compound 266, (S)—N-(1-(pyridin-2-yl)ethyl)-5-(4-(trifluoromethyl)phenyl)quinoxaline-2-carboxamide], 0.1 to 1 µM; that for `O=C(NC(CO)CO)c1ccc2c(-c3ccc(C(F)(F)F)cc3)cccc2c1` [Compound 56, N-(1,3-dihydroxypropan-2-yl)-5-(4-(trifluoromethyl)phenyl)-2-naphthamide], less than 0.1 µM.
For the molecule `O=C(O)c1ccc2c(-c3ccc(C(F)(F)F)cc3)cccc2c1` [Compound 330, 5-[4-(trifluoromethyl)phenyl]naphthalene-2-carboxylic Acid], the IC50 was less than 0.1 µM.
As for `COc1cc(-c2ccc(C(F)(F)F)cc2F)c2ncc(C(=O)N[C@@H](C)c3ccccn3)cc2c1` [Compound 232, (S)-8-(2-Fluoro-4-(trifluoromethyl)phenyl)-6-methoxy-N-(1-(pyridin-2-yl)ethyl)quinoline-3-carboxamide], the IC50 is less than 0.1 µM.
As for `C[C@H](NC(=O)c1ccc2c(-c3ccc(C(F)(F)F)cc3)cccc2c1)c1cccc2ccc(=O)[nH]c12` [Compound 178, N-[(1S)-1-(2-oxo-1H-quinolin-8-yl)ethyl]-5-[4-(trifluoromethyl)phenyl]naphthalene-2-carboxamide], the concentration for half-maximal inhibition (IC50) was 1 to 3 µM.
For the molecule `Cn1cc(-c2ccc(C(F)(F)F)cc2)c2ccc(C(=O)O)cc2c1=O` [Compound 337, 2-methyl-1-oxo-4-[4-(trifluoromethyl)phenyl]isoquinoline-7-carboxylic Acid], the IC50 is 0.1 to 1 µM.
Turning to `O=C(NCc1ncsn1)c1ccc2c(-c3ccc(C(F)(F)F)cc3)cccc2c1` [Compound 193, N-((1,2,4-thiadiazol-3-yl)methyl)-5-(4-(trifluoromethyl)phenyl)-2-naphthamide], the IC50 is less than 0.1 µM.
For the molecule `C[C@H](NC(=O)c1ccc2c(-c3ccc(C(F)(F)F)cc3)cccc2c1)c1cc(N(C)C)ccn1` [Compound 224, (S)—N-(1-(4-(dimethylamino)pyridin-2-yl)ethyl)-5-(4-(trifluoromethyl)phenyl)-2-naphthamide], the IC50 is 1 to 3 µM.
As to `C#CCCNC(=O)c1ccc2c(-c3ccc(C(F)(F)F)cc3)cccc2c1` [Compound 112, N-(but-3-yn-1-yl)-5-(4-(trifluoromethyl)phenyl)-2-naphthamide], the IC50 was less than 0.1 µM.
On to `CC(C)NC(=O)c1ccc2c(-c3ccc(C(F)(F)F)cc3)cc3ncnn3c2c1` [Compound 300, N-Isopropyl-5-(4-(trifluoromethyl)phenyl)-[1,2,4]triazolo[1,5-a]quinoline-8-carboxamide], for which the IC50 lay in the range of 0.1 to 1 µM.
With `C[C@H](NC(=O)c1ccc2c(-c3ccc(C(F)(F)F)cc3)cccc2c1)C1CCC1` [Compound 251, (S)—N-(1-cyclobutylethyl)-5-(4-(trifluoromethyl)phenyl)-2-naphthamide], the IC50 was 0.1 to 1 µM.

(Values after patent US11866431B2, “Bicyclic compounds” (Vivace Therapeutics, Inc., priority 2018, dated 2024).)
